{
  "source": "patent US10874643B2",
  "about": "(priority 2015, dated 2020)",
  "key": {"scn1Lab mutants [1]": {"system": "scn1Lab mutants", "experiment": "Locomotion tracking assay of seizure behavior (96-well format)", "conditions": "for 5HT library first-pass locomotion screen: 250 μM, 6 fish per drug, positive hit = reduction in mean swim velocity ≥38%; for effect on locomotor seizure behavior: 1 mM; for effect on locomotor seizure behavior / convulsive/seizure behavior with antihistamines / inhibition of spontaneous seizure behavior, initial library screen: 5 dpf; for effect on locomotor seizure behavior / inhibition of spontaneous seizure behavior, initial library screen: 6-12 fish; for convulsive/seizure behavior with antihistamines: shelf screen at 0.1-1 mM; for swim activity / seizure behavior, third evaluation: 100 μM, 10 fish per trial; for seizure-induced swim activity and mean velocity, re-test on separate clutch: 667, 67 and 6.7 μM; for inhibition of spontaneous seizure behavior, initial library screen: 667 μM"}, "scn1Lab mutants [2]": {"system": "scn1Lab mutants", "format": "in vivo, zebrafish", "conditions": "for forebrain electrographic seizure activity in the same mutants after the locomotion assay: 100 μM, mutant embedded in agar; for fish in which epileptiform activity became more frequent following exposure: 1 mM"}, "wild-type larvae": {"system": "wild-type larvae", "experiment": "DMSO toxicity in wild-type larvae", "conditions": "dilutions between 0.01 and 100%; n=12 fish per concentration"}, "[3]": {"conditions": "1 mM bath applied, 5-6 dpf, seven fish per drug, vs baseline"}, "[4]": {"conditions": "1 mM bath applied, agar-embedded mutants 5-6 dpf, seven fish per drug, vs baseline"}},
  "note": "Counter-ions that a name gives are not always drawn. Like-named read-outs stand apart in the source and are kept apart here.",
  "data": [
    {"smiles": "CN(C)CCc1c[nH]c2ccc(Cn3cncn3)cc12", "note": "[rizatriptan]", "values": [
      {"measurement": "5HT library first-pass locomotion screen", "setting": "scn1Lab mutants [1]", "result": "positive hits"}
    ]},
    {"smiles": "CNCC[C@@H](Oc1ccccc1C)c1ccccc1", "note": "[atomoxetine]", "values": [
      {"measurement": "5HT library first-pass locomotion screen", "setting": "scn1Lab mutants [1]", "result": "positive hits"}
    ]},
    {"smiles": "C[C@]12N[C@H](Cc3ccccc31)c1ccccc12", "note": "[MK-801]", "values": [
      {"measurement": "epileptic seizure events in sample EEG traces", "setting": "scn1Lab mutants [2]; zebrafish, in vivo", "result": "no suppression of epileptic events"}
    ]},
    {"smiles": "C[C@H]1CNCCc2ccc(Cl)cc21", "note": "[lorcaserin]", "values": [
      {"measurement": "5HT library first-pass locomotion screen", "setting": "scn1Lab mutants [1]", "result": "positive hits"}
    ]},
    {"smiles": "Nc1nnc(-c2cccc(Cl)c2Cl)c(N)n1", "note": "[lamotrigine]", "values": [
      {"measurement": "effect on locomotor seizure behavior", "setting": "scn1Lab mutants [1]", "result": "had no effect"}
    ]},
    {"smiles": "CC[C@@H](C(N)=O)N1CCCC1=O", "note": "[levetiracetam]", "values": [
      {"measurement": "effect on locomotor seizure behavior", "setting": "scn1Lab mutants [1]", "result": "had no effect"}
    ]},
    {"smiles": "CC(=O)Nc1nnc(S(N)(=O)=O)s1", "note": "[Acetazolamide]", "values": [
      {"measurement": "effect on locomotor seizure behavior", "setting": "scn1Lab mutants [1]", "result": "increased seizure behavior"}
    ]},
    {"smiles": "CC(C)(C)C(O)/C=C/c1ccc2c(c1)OCO2", "note": "(centres unmarked) [stiripentol]", "values": [
      {"measurement": "fractional time spent seizing", "setting": "scn1Lab mutants [2]; [3]", "result": "reduced"},
      {"measurement": "Epileptiform event frequency (burst frequency; interictal- and ictal-like discharges)", "setting": "scn1Lab mutants [2]; [4]", "result": "reduced"},
      {"measurement": "effect on locomotor seizure behavior", "setting": "scn1Lab mutants [1]", "result": "effectively inhibited seizure behavior"}
    ]},
    {"smiles": "CC(=O)[C@H]1CC[C@H]2[C@@H]3CC[C@H]4C[C@](C)(O)CC[C@]4(C)[C@H]3CC[C@]12C", "note": "[ganaxolone]", "values": [
      {"measurement": "effect on locomotor seizure behavior", "setting": "scn1Lab mutants [1]", "result": "effective"}
    ]},
    {"smiles": "O=C1CC2(CCCC2)CC(=O)N1CCCCN1CCN(c2ncccn2)CC1", "note": "[buspirone]", "values": [
      {"measurement": "5HT library first-pass locomotion screen", "setting": "scn1Lab mutants [1]", "result": "positive hits"}
    ]},
    {"smiles": "O=C1Cc2cc(CCN3CCN(c4nsc5ccccc45)CC3)c(Cl)cc2N1", "note": "[ziprasidone]", "values": [
      {"measurement": "5HT library first-pass locomotion screen", "setting": "scn1Lab mutants [1]", "result": "positive hits"}
    ]},
    {"smiles": "CN1CCc2c(c3ccccc3n2Cc2ccccc2)C1.CN1CCc2c(c3ccccc3n2Cc2ccccc2)C1.O=S(=O)(O)c1cccc2c(S(=O)(=O)O)cccc12", "note": "[mebhydrolin napthalenesulfonate]", "values": [
      {"measurement": "convulsive/seizure behavior with antihistamines", "setting": "scn1Lab mutants [1]", "result": "failed to suppress convulsive behavior"}
    ]},
    {"smiles": "Cc1ccc(C(=O)C(C)CN2CCCCC2)cc1", "note": "(centres unmarked) [tolperisone]", "values": [
      {"measurement": "forebrain electrographic seizure activity in the same mutants after the locomotion assay", "setting": "scn1Lab mutants [2]", "result": "electrographic seizure events were still observed"},
      {"measurement": "swim activity / seizure behavior, third evaluation", "setting": "scn1Lab mutants [1]", "result": "reduced swim activity"},
      {"measurement": "seizure-induced swim activity and mean velocity, re-test on separate clutch", "setting": "scn1Lab mutants [1]", "result": "effective in reducing seizure-induced swim activity and mean velocity"}
    ]},
    {"smiles": "NC(=O)N1c2ccccc2C=Cc2ccccc21", "note": "[carbamazepine]", "values": [
      {"measurement": "Epileptiform event frequency (burst frequency; interictal- and ictal-like discharges)", "setting": "scn1Lab mutants [2]; [4]", "result": "increased burst frequency"},
      {"measurement": "fish in which epileptiform activity became more frequent following exposure", "setting": "scn1Lab mutants [2]; seven fish per drug", "result": "2 of 7"}
    ]},
    {"smiles": "CN1C(=O)CN=C(c2ccccc2)c2cc(Cl)ccc21", "note": "[diazepam]", "values": [
      {"measurement": "Epileptiform event frequency (burst frequency; interictal- and ictal-like discharges)", "setting": "scn1Lab mutants [2]; zebrafish, in vivo", "result": "reduced"},
      {"measurement": "fractional time spent seizing", "setting": "scn1Lab mutants [2]; zebrafish, in vivo", "result": "reduced"},
      {"measurement": "effect on locomotor seizure behavior", "setting": "scn1Lab mutants [1]", "result": "effectively inhibited seizure behavior"}
    ]},
    {"smiles": "COc1ccc(C(CN(C)C)C2(O)CCCCC2)cc1", "note": "(centres unmarked) [venlafaxine]", "values": [
      {"measurement": "5HT library first-pass locomotion screen", "setting": "scn1Lab mutants [1]", "result": "positive hits"}
    ]},
    {"smiles": "C=CC(N)CCC(=O)O", "note": "(centres unmarked) [vigabatrin]", "values": [
      {"measurement": "Epileptiform event frequency (burst frequency; interictal- and ictal-like discharges)", "setting": "scn1Lab mutants [2]; [4]", "result": "increased burst frequency"},
      {"measurement": "fish in which epileptiform activity became more frequent following exposure", "setting": "scn1Lab mutants [2]; seven fish per drug", "result": "6 of 7"}
    ]},
    {"smiles": "CC(C)CCCC(C)NC(C)C", "note": "(centres unmarked) [iproheptine]", "values": [
      {"measurement": "convulsive/seizure behavior with antihistamines", "setting": "scn1Lab mutants [1]", "result": "failed to suppress convulsive behavior"}
    ]},
    {"smiles": "O=c1n(CCCN2CCN(c3cccc(Cl)c3)CC2)nc2ccccn12", "note": "[trazodone]", "values": [
      {"measurement": "epileptic seizure events in sample EEG traces", "setting": "scn1Lab mutants [2]; FIG. 12B", "result": "suppression of epileptic seizure events"},
      {"measurement": "EEG activity", "setting": "scn1Lab mutants [2]; concentrations between 250 and 500 μM, n=15", "result": "effectively suppressed EEG activity"},
      {"measurement": "5HT library first-pass locomotion screen", "setting": "scn1Lab mutants [1]", "result": "positive hits"},
      {"measurement": "toxicity in the locomotion assay", "setting": "scn1Lab mutants [1]; 750 μM", "result": "toxic"},
      {"measurement": "inhibition of spontaneous seizure behavior, concentration-response re-test", "setting": "scn1Lab mutants [1]; concentrations between 100 and 750 μM, 30 or 90 min exposure, threshold ≥40%", "result": "robust inhibition of spontaneous seizure behavior"}
    ]},
    {"smiles": "COc1ccccc1N1CCN(CCN2C(=O)CC3(CCCC3)CC2=O)CC1", "note": "[BMY 7378, 8-(2-[4-(2-methoxyphenyl)-1-piperazinyl]ethyl)-8-azaspiro[4.5]decane-7,9-dione]", "values": [
      {"measurement": "5HT library first-pass locomotion screen", "setting": "scn1Lab mutants [1]", "result": "positive hits"}
    ]},
    {"smiles": "CN1CCC(=C2c3ccccc3Sc3ccccc32)CC1", "note": "[pimethixene maleate]", "values": [
      {"measurement": "convulsive/seizure behavior with antihistamines", "setting": "scn1Lab mutants [1]", "result": "failed to suppress convulsive behavior"}
    ]},
    {"smiles": "[Br-].[K+]", "note": "[potassium bromide]", "values": [
      {"measurement": "fractional time spent seizing", "setting": "scn1Lab mutants [2]; [3]", "result": "reduced"},
      {"measurement": "Epileptiform event frequency (burst frequency; interictal- and ictal-like discharges)", "setting": "scn1Lab mutants [2]; [4]", "result": "reduced"},
      {"measurement": "effect on locomotor seizure behavior", "setting": "scn1Lab mutants [1]", "result": "effectively inhibited seizure behavior"}
    ]},
    {"smiles": "CN(C)CCc1c[nH]c2ccc(C[C@H]3COC(=O)N3)cc12", "note": "[zolmitriptan]", "values": [
      {"measurement": "5HT library first-pass locomotion screen", "setting": "scn1Lab mutants [1]", "result": "positive hits"}
    ]},
    {"smiles": "NCC(O)CC(=O)O", "note": "(centres unmarked) [aminohydroxybutyric acid]", "values": [
      {"measurement": "inhibition of spontaneous seizure behavior, initial library screen", "setting": "scn1Lab mutants [1]", "result": "ineffective"}
    ]},
    {"smiles": "O=C(CCCl)NCc1ccccc1", "note": "[beclamide]", "values": [
      {"measurement": "inhibition of spontaneous seizure behavior, initial library screen", "setting": "scn1Lab mutants [1]", "result": "ineffective"}
    ]},
    {"smiles": "C[S+](C)[O-]", "note": "[DMSO]", "values": [
      {"measurement": "lethal DMSO concentration", "setting": "wild-type larvae", "result": "> 25", "unit": "%"}
    ]},
    {"smiles": "CCC1(C)CC(=O)NC1=O", "note": "(centres unmarked) [ethosuximide]", "values": [
      {"measurement": "fish in which epileptiform activity became more frequent following exposure", "setting": "scn1Lab mutants [2]; seven fish per drug", "result": "4 of 7"},
      {"measurement": "effect on locomotor seizure behavior", "setting": "scn1Lab mutants [1]", "result": "increased seizure behavior"}
    ]},
    {"smiles": "CN1CCC(c2c[nH]c3ccc(O)cc23)CC1", "note": "[BRL-54443, 3-(1-methylpiperidin-4-yl)-1H-indol-5-ol]", "values": [
      {"measurement": "5HT library first-pass locomotion screen", "setting": "scn1Lab mutants [1]", "result": "positive hits"}
    ]},
    {"smiles": "CNS(=O)(=O)CCc1ccc2[nH]cc(C3CCN(C)CC3)c2c1", "note": "[naratriptap]", "values": [
      {"measurement": "5HT library first-pass locomotion screen", "setting": "scn1Lab mutants [1]", "result": "positive hits"}
    ]},
    {"smiles": "CCNC1(c2cccs2)CCCCC1=O", "note": "(centres unmarked) [tiletamine]", "values": [
      {"measurement": "inhibition of spontaneous seizure behavior, initial library screen", "setting": "scn1Lab mutants [1]", "result": "ineffective"}
    ]},
    {"smiles": "CNS(=O)(=O)Cc1ccc2[nH]cc(CCN(C)C)c2c1", "note": "[sumatriptan]", "values": [
      {"measurement": "5HT library first-pass locomotion screen", "setting": "scn1Lab mutants [1]", "result": "positive hits"}
    ]},
    {"smiles": "COc1ccccc1N1CCN(CCCNc2cc(=O)n(C)c(=O)n2C)CC1", "note": "[urapidil]", "values": [
      {"measurement": "5HT library first-pass locomotion screen", "setting": "scn1Lab mutants [1]", "result": "positive hits"}
    ]},
    {"smiles": "C#CCN(C)CCCOc1ccc(Cl)cc1Cl", "note": "[Clorgiline]", "values": [
      {"measurement": "forebrain electrographic seizure activity in the same mutants after the locomotion assay", "setting": "scn1Lab mutants [2]", "result": "electrographic seizure events were still observed"},
      {"measurement": "swim activity / seizure behavior, third evaluation", "setting": "scn1Lab mutants [1]", "result": "reduced swim activity"},
      {"measurement": "seizure-induced swim activity and mean velocity, re-test on separate clutch", "setting": "scn1Lab mutants [1]", "result": "effective in reducing seizure-induced swim activity and mean velocity"}
    ]}
  ]
}
